The test system of assay [1] is total Axl. The assay is described as follows: Total Axl by flow cytometry in MOLM13 cells (Example 2). It is filed as cell-based, human. The following applies: MOLM13 starved, 3 μM, 40 minutes. On the procedure:
Staining of Cells for Flow Cytometry, General Protocol: • Live cells were centrifuged at 300 G for 5 minutes, washed once with PBS and centrifuged again. Cells were then fixed in 4% PFA in PBS for 10 minutes at 37° C., and resuspended in PBS. Unless processed immediately, samples were at this point stored in PBS at 4° C. (up to three weeks) or at −80° C. (for long-term storage). If intracellular epitopes were stained, cells were permebealized in 90% MeOH for 30 minutes on ice. Unless processed immediately, samples were also be stored in 90% MeOH at −20° C. for up to two months. • Further staining procedure (permebealized or non-permebealized cells): • Cells were washed 1× in PBS and blocked in blocking buffer; either PBS+0.5% BSA or PBS+1:1000 Octagam (5 mg/ml) for 15 minutes at room temperature. Thereafter, cells were incubated with primary AB at the indicated dilutions in incubation buffer (IB, PBS+0.5% BSA) for 1 hour at room temperature. […] Cells were analyzed immediately, or stored for up to 24 hours at 4° C. before analysis. • Analysis of cells was done on a BD LSR Fortessa or a BD C6 Accuri flow cytometer, and further processing was done using FlowJo v.7.6. • All incubation steps (but not storage) were done on a spinning wheel or gentle shaker. […]
A general note: Flow cytometry measures light scatter and fluorescence of single cells or particles in a stream.

For assay [2], the system named is totPHGDH. Put plainly: Total PHGDH in AML cell panel, long-term treatment, flow cytometry. It is filed as cell-based, human. On the procedure:
(§1) Staining of Cells for Flow Cytometry, General Protocol: • Live cells were centrifuged at 300 G for 5 minutes, washed once with PBS and centrifuged again. Cells were then fixed in 4% PFA in PBS for 10 minutes at 37° C., and resuspended in PBS. Unless processed immediately, samples were at this point stored in PBS at 4° C. (up to three weeks) or at −80° C. (for long-term storage). If intracellular epitopes were stained, cells were permebealized in 90% MeOH for 30 minutes on ice. Unless processed immediately, samples were also be stored in 90% MeOH at −20° C. for up to two months. • Further staining procedure (permebealized or non-permebealized cells): • Cells were washed 1× in PBS and blocked in blocking buffer; either PBS+0.5% BSA or PBS+1:1000 Octagam (5 mg/ml) for 15 minutes at room temperature. Thereafter, cells were incubated with primary AB at the indicated dilutions in incubation buffer (IB, PBS+0.5% BSA) for 1 hour at room temperature. Cells were then washed 3× with IB and incubated with secondary AB (conjugated to a fluorescent flurophore) at 1:1000 dilution in IB for 30 minutes at room temperature. Finally, cells were washed 3× in IB and resuspended in PBS. Cells were analyzed immediately, or stored for up to 24 hours at 4° C. before analysis. • Analysis of cells was done on a BD LSR Fortessa or a BD C6 Accuri flow cytometer, and further processing was done using FlowJo v.7.6. • All incubation steps (but not storage) were done on a spinning wheel or gentle shaker.
(§2) The diversity of AML cells and their responses was investigated using a panel of AML cell lines and assessing their responses after BGB324-treatment.
(§3) Long-term treatment was done in complete medium, without starvation. The responders were treated with 0.05, 0.1 or 0.3 μM BGB324, whereas the non-responders were treated with only a single dose of 2.5 μM BGB324. The cells were fixed after 24, 48 or 72 hours, and the samples were stored in 90% MeOH at −20° C. until all samples were harvested, and stained for flow at the same time.

The test system of assay [3] is pErk. The assay is described as follows: pErk in CD33-positive cells, MOLM13 systemic xenograft model, flow cytometry. It is filed as in vivo, mice. The conditions noted are these: 50 mg/kg for 4 days. On the procedure:
Material from an in vivo MOLM13 systemic model was also evaluated by flow cytometry. Expression of the previously evaluated biomarkers was examined in cells isolated from bone marrows and spleens of animals with systemic AML disease (MOLM13, inoculated for 7 days prior to treatment) treated with BGB324 at 50 mg/kg for 4 days. The spleens analysed were from the same study that was analysed by microarray, as mentioned above. The bone marrows were from an identical study that was done at a later time point to get more material for flow analyses.
Cells isolated from spleens and bone marrows were assessed for phosphorylation of Erk, PLCγ1 and Akt, and expression of PHGDH and SLFN11. The samples were also co-stained with CD33, and biomarker expression was only evaluated in CD33-positive cells.

In assay [4] the test system is pAxl (Y779). The assay is described as follows: pAxl(Y779) in AML cell panel, short term treatment, flow cytometry. The conditions noted are these: 1 hour. It is filed as cell-based, human. On the procedure:
as §1, §2
When investigating phospho-markers, the cells were starved overnight in the appropriate growth medium containing 0.1% FBS, pre-treated with BGB324 at 0.5 and 1 μM for one hour, and stimulated with 10% FBS for 20 minutes (to induce phosphorylation, with BGB324 present). Cells were then fixed and stained for flow cytometric analyses.

Assay [5] concerns totPLCγ1. Put plainly: Total PLCγ1 in AML cell panel, long-term treatment, flow cytometry. It is filed as cell-based, human. As to the method: as §1, §2, §3
Assay [6] has as its system Axl(Y779). The assay is described as follows: pAxl(Y779) in blood of healthy volunteers treated ex vivo. Type of assay: cell-based, human. The following applies: blood of two healthy volunteers, 1 μM, 30 minutes ex vivo. On the procedure:
Staining of Blood for Flow Cytometry, General Protocol: • Human blood from healthy donors was collected in the presence of sodium citrate and mixed with 20 volumes of pre-warmed BD phosflow lyse/fix buffer (diluted to 1× in destilled water), followed by incubation in 37° C. water bath for 10 minutes. Cells were spun at 500 g for 8 minutes and washed once with PBS. • Cells were permebilized by adding 70% MeOH followed by 30 min incubation on ice. Unless processed immediately, samples were at this point stored in MeOH at −20° C. for up to 4 weeks. • Staining of permeabilized cells: • Cells were spun at 600 g, washed twice and resuspended in IB. Cells were aliquoted into volums corresponding to 100 ul collected blood (before dilution), and stained as described above (section two in “Staining of cells for flow cytometry, general protocol”). • All washing and incubation steps were done on a spinning wheel or gentle shaker.
Blood samples from BGB324-treated individuals were not available, so BGB324-treatment was simulated by incubating fresh unfixed blood samples with 1 μM BGB324 for 30 minutes before fixation. Thereafter, samples were fixed, permebealized, and stained for flow with pAxl and pAkt antibodies to examine whether we could see a response to BGB324-treatment in these biomarkers (see FIG. 7). Phosphatase-treated cells were included as a negative staining control. […]

Take `Nc1nc(Nc2ccc3c(c2)CC[C@@H](N2CCCC2)CC3)nn1-c1cc2c(nn1)-c1ccccc1CCC2` [BGB324, 1-(6,7-dihydro-5H-benzo[6,7]cyclohepta[1,2-c]pyridazin-3-yl)-N3-((7-(S)-pyrrolidin-1-yl)-6,7,8,9-tetrahydro-5H-benzo[7]annulene-2-yl)-1H-1,2,4-triazole-3,5-diamine]: in assay [1], the “Total Axl expression” value is on record as “did not change”. The PHGDH expression entry in assay [2] (Kasumi, 2.5 μM, significant at 24 hours) is “increase in PHGDH expression”; in assay [2] (OCI-AML5, 2.5 μM, significant in all time points) it was “increase in PHGDH expression”. The “total protein expression of PHGDH” value was “no significant changes” in assay [2] (MOLM13, 24, 48 and 72 hours); “significant reduction of PHGDH” in assay [2] (Mv4-11, 0.3 uM, 24 and 72 hours). The pErk entry in assay [3] (bone marrows) and in assay [3] (spleens) was “significant reduction” throughout. For the same compound, the pAxl result was “no response to treatment” in assay [4] (Kasumi, 0.5 and 1 μM); “slight (but significant) reduction of pAxl” in assay [4] (OCI-M1, highest treatment dose). Also, the “phosphorylation of Axl at Y779” value is given as “significantly reduced” in assay [4] (MOLM13, 0.5 and 1 μM); “significantly reduced” in assay [4] (Mv4-11, 0.5 and 1 μM). The PLCγ1 expression entry in assay [5] (Kasumi, 2.5 μM, 48 and 72 hours) is “significant increase of PLCγ1 expression”; in assay [5] (OCI-AML5, 2.5 μM, only 72 hours), “significant increase of PLCγ1 expression”. Further, the “total protein expression of PLCγ1” value was “slight but significant reduction” in assay [5] (MOLM13, 0.3 μM, 24 hours); “significant reduction” in assay [5] (Mv4-11, 0.3 μM, 24 and 72 hours). Moreover, the “reduction of pAxl(Y779)” value in assay [6] (gated Axl-positive cells) is approximately 20%. The “reduction of pAxl” value in assay [6] (whole live cell population) is recorded as “around 20%”.

Values taken from patent publication US11035008B2, “Biomarkers for cancer” (BERGENBIO ASA, priority 2015, dated 2021).
